Experiments:
Type in all cases: in vivo
[1] = test system: Echinochloa crus-galli; experiment: Test Example 1: herbicidal effect test by treatment of rice paddy soil (immediately after seeding); details: 120 g/10a active ingredient, dry weight vs untreated area, 14 days after treatment
How it was run: (§1)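 Puddled, fertilized (N:P:K=17:17:17) paddy soil in Wagner pots; seeds sown 0–1 cm deep, flooded to about 3 cm. Emulsifiable formulations diluted in water and dropped into the water immediately after seeding at 120 g active ingredient per 10 ares; greenhouse. Herbicidal rate from dry weight vs untreated at 14 days.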

[2] = test system: Scirpus juncoides; experiment: as above; details: 120 g/10a active ingredient, dry weight vs untreated area, 14 days after treatment
How it was run: as §1

[3] = test system: broad leaf weeds (Lindernia pyxidaria and Monochoria vaginalis); experiment: as above; details: 120 g/10a active ingredient, dry weight vs untreated area, 14 days after treatment
How it was run: as §1

[4] = test system: Echinochloa crus-galli; experiment: Test Example 2: herbicidal effect test by treatment during growing period in paddy rice cultivation (seven days after seeding); details: 120 g/10a active ingredient, assessed 14 days after treatment, dry weight vs untreated area
How it was run: (§2)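 Emulsion formulations, diluted in water, applied dropwise to flooded pots (about 3 cm water) 7 days post-seeding at 120 g a.i./10 ares. Weeds sown 30 seeds each, 0–1 cm deep in puddled paddy soil; greenhouse. Readout: % reduction in plant dry weight vs untreated, day 14, duplicates.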

[5] = test system: Scirpus juncoides; experiment: as above; details: 120 g/10a active ingredient, assessed 14 days after treatment, dry weight vs untreated area
How it was run: as §2

[6] = test system: broad leaf weeds (Lindernia pyxidaria and Monochoria vaginalis); experiment: as above; details: 120 g/10a active ingredient, assessed 14 days after treatment, dry weight vs untreated area
How it was run: as §2

[7] = test system: Amaranthus viridis; experiment: Test Example 3: herbicidal effect test by treatment of dry field farming soil (one day after seeding); details: 120 g/10a active ingredient, evaluated 14 days after treatment
How it was run: (§3)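 Herbicidal rate (%) = {1 − treated/untreated mean plant dry weight} × 100, scored 14 days after spraying, duplicate pots per concentration. Emulsified compound was water-diluted and applied to soil surface one day post-seeding at 120 g a.i. per 10 ares.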

[8] = test system: Chenopodium album; experiment: as above; details: 120 g/10a active ingredient, evaluated 14 days after treatment
How it was run: as §3

[9] = test system: Echinochloa crus-galli; experiment: as above; details: 120 g/10a active ingredient, evaluated 14 days after treatment
How it was run: as §3

[10] = test system: southern crabgrass; experiment: as above; details: 120 g/10a active ingredient, evaluated 14 days after treatment
How it was run: as §3

[11] = test system: Amaranthus viridis; experiment: Test Example 4: herbicidal effect test by treatment of leave and stem in dry field farming (seven days after seeding); details: 120 g/10a active ingredient; emulsion sprayed seven days after seeding; evaluated 14 days after treatment
Procedure: (§4) This test was conducted in a double system per one agent solution concentration area, and the herbicidal rates (%) were determined by the following equation (Math. 1) on 14 days after the treatment with the agents. Herbicidal Rate (%)={1-(Average Dry Weight (g) of Plant of Treated Area)/(Average Dry Weight (g) of Plant of Untreated Area)}×100 [Math. 1]
(§5) Herbicidal Effect Test by Treatment of Leave and Stem in Dry Field Farming
(§6) Pots with a size of 36 cm^2 were filled with a dry field farming soil (alluvium). The soil of the top layer of 1 cm and seeds of weeds, namely southern crabgrass, Echinochloa crus-galli, Chenopodium album and Amaranthus viridis, 20 seeds each, were evenly mixed, and the top layer was gently pressed. Emulsions prepared using the compounds in Table 6 below according to Formulation Example 5 were diluted with water seven days after seeding, and the water-diluted agent solutions were sprayed to the soil surfaces at a ratio of 100 liters per 10 ares. The converted amount of the applied active ingredient corresponded to 120 g per 10 ares. The herbicidal effects were evaluated by the same standard as that in Test Example 1 on 14 days after the treatment with the agents. […] The compound numbers in Table 6 are the same as those in Table 1 and Table 2 above.

[12] = test system: Chenopodium album; experiment: as above; details: 120 g/10a active ingredient; emulsion sprayed seven days after seeding; evaluated 14 days after treatment
Procedure: as §4, §5, §6

[13] = test system: Echinochloa crus-galli; experiment: as above; details: 120 g/10a active ingredient; emulsion sprayed seven days after seeding; evaluated 14 days after treatment
Procedure: as §4, §5, §6

[14] = test system: southern crabgrass; experiment: as above; details: 120 g/10a active ingredient; emulsion sprayed seven days after seeding; evaluated 14 days after treatment
Procedure: as §4, §5, §6

SMILES | Herbicidal rate (%) Echinochloa crus-galli [1] | Herbicidal rate (%) Scirpus juncoides [2] | Herbicidal rate (%) Lindernia pyxidaria [3] | Herbicidal rate (%) Monochoria vaginalis [3] | Herbicidal rate (%) Echinochloa crus-galli [4] | Herbicidal rate (%) Scirpus juncoides [5] | Herbicidal rate (%) Lindernia pyxidaria [6] | Herbicidal rate (%) Monochoria vaginalis [6] | herbicidal rate, Amaranthus viridis [7] | herbicidal rate, Chenopodium album [8] | herbicidal rate, Echinochloa crus-galli [9] | herbicidal rate, southern crabgrass [10] | herbicidal effect (herbicidal rate), Amaranthus viridis [11] | herbicidal effect (herbicidal rate), Chenopodium album [12] | herbicidal effect (herbicidal rate), Echinochloa crus-galli [13] | herbicidal effect (herbicidal rate), southern crabgrass [14]
Cc1c(Cc2cc(F)ccc2NS(=O)(=O)C(F)(F)F)c(=O)on1CC(C)C [Compound 1-28] | 100% | 90% | 90% | 100% | 100% | 90% | 80% | 100% | 100% | 100% | 90% | 80% | 80% | 40% | 90% | 50%
Cc1c(Cc2cc(F)ccc2N(S(=O)(=O)C(F)(F)F)S(=O)(=O)C(F)(F)F)c(=O)on1CC(C)C [Compound 1-29] | 100% | 90% | 90% | 90% | 100% | 90% | 80% | 90% | 40% | 40% | 70% | 70% | 60% | 0% | 60% | 40%
Cc1c(Cc2cccc(Cl)c2NS(=O)(=O)C(F)(F)F)c(=O)on1C(C)C [Compound 1-33] | 80% | 100% | 90% | 90% | 60% | 80% | 60% | 60% | 0% | 40% | 90% | 70% | 0% | 40% | 90% | 40%
Cc1c(Cc2ccc(Cl)cc2NS(=O)(=O)C(F)(F)F)c(=O)on1C(C)C [Compound 1-37] | 60% | 90% | 80% | 40% | 40% | 0% | 40% | 40% | 0% | 40% | 70% | 40% | 40% | 80% | 90% | 40%
Cc1c(Cc2cc(Cl)ccc2NS(=O)(=O)C(F)(F)F)c(=O)on1C(C)C [Compound 1-41] | 100% | 100% | 100% | 100% | 90% | 60% | 90% | 80% | 0% | 50% | 90% | 90% | 60% | 90% | 90% | 90%
CCc1c(Cc2ccccc2NS(=O)(=O)C(F)(F)F)c(=O)on1C(C)C [Compound 1-63] | 90% | 100% | 100% | 100% | 80% | 90% | 80% | 90% | 40% | 40% | 90% | 90% | 40% | 60% | 90% | 60%
Cc1c(Cc2ccccc2NS(=O)(=O)C(F)(F)F)c(=O)on1C [Compound 1-97] | 100% | 100% | 100% | 100% | 90% | 90% | 80% | 60% | 0% | 0% | 90% | 90% | 40% | 40% | 90% | 90%

From patent US11109593B2, “Isoxazolin-5-one derivative and herbicide containing same as active ingredient” (HOKKO CHEMICAL INDUSTRY CO., LTD., priority 2017, dated 2021)
